Reference: patent publication US20090137662A1, “SYNERGY OF DOPAMINE D2 AND ADENOSINE A2 RECEPTORS ACTIVATES PKA SIGNALING VIA BETA/GAMMA DIMERS” (The Regents of the University of California, priority 2002, published 2009)
Counter-ions that a name gives are not always drawn. Like-named read-outs stand apart in the source and are kept apart here.

Experiments:
ε-PKC [1] = test: Translocation of ε-PKC in NG108-15 and CHO cells expressing the applicable receptor; assay type: cell-based
Text: (§1) To determine whether addictive drugs other than ethanol would cause translocation of some proteins, we examine the effects of various receptor agonists and antagonists on ε-PKC δ-PKC or PKA Cα translocation in NG108-15 and CHO cells expressing the applicable receptor. […] Adenosine is also implicated in some behavioral effects of ethanol.
(§2) The mechanisms underlying ethanol- and dopamine-mediated translocation of ε-PKC and δ-PKC were studied by altering the activity of various molecules that might be in the pathways leading to translocation.

[2] = test system: CRE-regulated luciferase expression; test: CRE-luciferase reporter in NG108-15 cells; assay type: cell-based
Procedure: Luciferase is used as a reporter gene in a transient expression system to identify substances that alter the effects of ethanol on CRE-regulated gene expression. Cells are cultured as described in Dohrman et al., Proc Natl Acad Sci USA (1996) 93:10217-10221, and are transfected using Effectene (Qiagene) as described by the manufacturers. Twenty-four hours after transfection the cells are treated with 200 mM ethanol for 30 min. to 36 hr. Luciferase activity is measured using Luciferase Assay System (Promega) and normalized to β-galactosidase activity.
(§3) NG108-15 cells were co-transfected with a fusion construct containing the cAMP response element (CRE) fused to luciferase as a reporter gene (Stratagene).
Since the ERK/MAPK pathway may regulate CREB phosphorylation and CRE-mediated gene expression, NG108-15 cells having the luciferase construct were co-incubated with 200 mM ethanol and a MEK inhibitor (PD98059 (2 nM, Calbiochem, San Diego, Calif.) or U0126 (1 μM, Calbiochem, San Diego, Calif.)) or a dominant negative MEK construct (DN-MEK, Dr. R. Seger) in which Lys-97 was replaced by alanine.
as §3

PKA Cα [3] = assay type: cell-based; conditions: for translocation of PKA-Cα after co-incubation with NPA: 10 minute co-incubation with 10^−10M NPA, 10^−11M DADLE or 2×10^−10M methanindamide
Text: as §1

PKA Cα [4] = test: PKA Cα translocation in primary cultures of hippocampal neurons; conditions: for effect of agent alone on PKA Cα localization: data not shown
ε-PKC [5] = assay type: cell-based
Procedure: NG 108-15 or CHO cells were pre-incubated in the presence or absence of the indicated inhibitor for 30 min. (except for GF which was pre-incubated for 1 hour), then further incubated in the absence or presence of 200 mM ethanol for 30 min.

ε-PKC [6] = assay type: cell-based; conditions: naive NG108-15 cells; 100 nM PMA, 10 min.
Procedure: (§4) Naive NG108-15 cells were, therefore, incubated in for ten (10) min. in 100 nM PMA, to then determine localization of δ-PKC and ε-PKC.

δ-PKC [7] = assay type: cell-based; conditions: naive NG108-15 cells; 100 nM PMA, 10 min.
Procedure: as §4

[8] = test system: CRE-mediated gene expression; test: CRE-luciferase reporter assay in NG108-15/D2 cells; conditions: NG108-15/D2 cells; spiperone, Rp-cAMPS or PTX alone
Procedure: Cells were transiently transfected with a CRE-luciferase reporter construct to measure gene expression via endogenous CRE-binding protein (CREB).
NG108-15/D2 cells were plated at 1×10^6 cells/100 mm plate, grown in defined medium for 3 days, and then transfected with 10 μg of CRE-luciferase construct using the LipofectAMINE reagent (GIBCOL) as recommended by the manufacturer. Cells were cultured for 24 h post transfection before being seeded into 12-well plates. […] Cells were then washed with PBS and cultured for a total of 5 h. Cell extracts were prepared and luciferase activity measured with a luciferase assay system (Promega, Madison, Wis.), using a Rosys Anthos Lucy2 microplate luminometer (Anthos Labtec Instruments, Austria). Results are expressed as percent increase over control. Data represent three or more separate experiments from triplet wells. Luciferase activities were normalized for transfection efficiency determined in cells transfected in parallel with pCMVβgalactosidase. β-galactosidase activity was measured using a kit from Strategene (La Jolla, Calif.).

δ-PKC [9] = test: Translocation of δ-PKC in NG108-15 and CHO cells expressing the applicable receptor; assay type: cell-based
Text: as §1, §2

[10] = test system: CREB (GAL4-CREB fusion, luciferase reporter); test: GAL4-CREB / GAL4-luciferase reporter in NG108-15 cells; assay type: cell-based; conditions: 20 μM Rp-cAMPS 2 h, 5 μM KN-62 or 50 nM GF 30 min pretreatment, then ethanol 14 hours
Procedure: Cells are cultured as described in Dohrman et al., Proc Natl Acad Sci USA (1996) 93:10217-10221, and are transfected using Effectene (Qiagene) as described by the manufacturers. […] Luciferase activity is measured using Luciferase Assay System (Promega) and normalized to β-galactosidase activity.
NG108-15 cells are co-transfected with a GAL4-CREB fusion construct and with a second construct containing the DNA binding site of GAL4 fused to luciferase as a reporter gene. […] The ethanol-induced increase in luciferase activity induced was inhibited by Rp-cAMPS but not by the CaMK and PKC inhibitors KN-62 and GF, respectively (FIGS. 15 and 16B).

[11] = test system: PKA subunits (RIα, RIIα, RIβ, Cα, Cβ, Cγ); test: Immunocytochemical localization of PKA subunits in neutrophils; assay type: cell-based, human
Text: Methods 5:249-252 (1974). […] This step removed contaminating platelets from the lymphocyte fraction. […] Images were further analyzed using NIH Image.

[12] = NG108-15 cells expressing the applicable receptor, 200 mM Ethanol, 50 nM NPA, 1 μM D-ala-D-leu-enkephalin, 2 μM R(+) methanindamide, 20 μM Carbachol, 10^−5 M UK14304, 20 nM CCPA, 100 nM CGS-21680 HCl, None: Perinucleus
[13] = primary hippocampal neurons, 50 nM NPA, spiperone 10 μM, DPCPX 100 nM, DMPX 10 μM 30 min, Rp-cAMPS 20 μM 1.5 hours, PTX 50 ng/ml or Ad5QEHA overnight
[14] = CHO cells expressing the dopamine D2 receptor
[15] = NG108-15 cells expressing the dopamine D2 receptor
[16] = NG108-15 cells, H-89 10 μM, PD98059 2 nM, U0126 1 μM, DN-RIα, DN-MEK, CREB-M1 constructs co-transfected
[17] = PKA agonist Sp-cAMPS, or forskolin or PGE1 to increase cAMP levels
[18] = 10 μM spiperone or 10 μM BW 1434 + 200 mM ethanol

OC[C@H]1O[C@@H](n2cnc3c(NC4CCCC4)nc(Cl)nc32)[C@H](O)[C@@H]1O [CCPA, 2-chloro-N^6-cyclopentyladenosine]
Predominant Localization of ε-PKC (agent alone) (ε-PKC [1]; [12]): Cytoplasm

CCNC(=O)[C@H]1O[C@@H](n2cnc3c(N)nc(NCCc4ccc(CCC(=O)O)cc4)nc32)[C@H](O)[C@@H]1O [CGS-21680 HCl]
Predominant Localization of ε-PKC (agent alone) (ε-PKC [1]; [12]): Cytoplasm

C[N+](C)(C)CCOC(N)=O [Carbachol]
Predominant Localization of ε-PKC (agent alone) (ε-PKC [1]; [12]): Perinucleus

CC(C)C[C@@H](NC(=O)[C@H](Cc1ccccc1)NC(=O)CNC(=O)[C@@H](C)NC(=O)[C@@H](N)Cc1ccc(O)cc1)C(=O)O [DADLE, enkephalin (D-ala2,D-leu5)]
Predominant Localization of ε-PKC (agent alone) (ε-PKC [1]): Cytoplasm
increase in luciferase expression ([2]; NG108-15 cells, 10 nM DADLE, four hours): 40%
translocation of PKA-Cα after co-incubation with ethanol (PKA Cα [3]): Synergistic translocation
translocation of PKA-Cα after co-incubation with NPA (PKA Cα [3]): Synergistic translocation
translocation of PKA-Cα after co-incubation of δ-opioid and cannabinoid (PKA Cα [3]; 10 minute coincubation of 10^−11M DADLE and 2×10^−10M methanindamide): did not result in synergistic translocation

C#CCn1c(=O)c2c(ncn2C)n(C)c1=O [DMPX]
effect on NPA-induced PKA Cα translocation (PKA Cα [4]; [13]): do not affect
effect of agent alone on PKA Cα localization (PKA Cα [4]; primary hippocampal neurons): no effect

CCCn1c(=O)c2[nH]c(C3CCCC3)nc2n(CCC)c1=O [DPCPX]
effect on NPA-induced PKA Cα translocation (PKA Cα [4]): do not affect
effect on ethanol-induced PKA Cα translocation (PKA Cα [4]): prevents
effect of agent alone on PKA Cα localization (PKA Cα [4]; primary hippocampal neurons): no effect

CCCCCCCCCCCCCCCCCCOCC(COP(=O)([O-])OCC[N+](C)(C)C)OC (centres unmarked) [Et-18-OCH3]
Predominant ε-PKC Localization (ethanol + inhibitor) (ε-PKC [5]): Perinucleus
inhibition of ethanol-induced translocation of ε-PKC (ε-PKC [1]; [14]): 87%
inhibition of ethanol-induced translocation of ε-PKC (ε-PKC [1]; [15]): 96%

CN(C)CCCn1cc(C2=C(c3c[nH]c4ccccc34)C(=O)NC2=O)c2ccccc21 [GF, Bisindoylmaleimide I]
Predominant ε-PKC Localization (ethanol + inhibitor) (ε-PKC [5]): Perinucleus

O=S(=O)(NCCNC/C=C/c1ccc(Br)cc1)c1cccc2cnccc12 [H-89]
effect on the increase in luciferase expression after 14 hours of exposure to 200 mM ethanol [2, 16]: inhibit the increase in luciferase expression

Cl.c1ccc([C@@H]2CCC[C@@H]2NC2=NCCCCCCCCCCC2)cc1 [MDL 12, 330A Hydrochloride]
Predominant ε-PKC Localization (ethanol + inhibitor) (ε-PKC [5]): Perinucleus

COc1cccc(-c2cc(=O)c3ccccc3o2)c1N [PD98059]
effect on the increase in luciferase expression after 14 hours of exposure to 200 mM ethanol [2, 16]: eliminated the increase in luciferase activity

CCCCCCCCCCCCCC(=O)O[C@@H]1[C@@H](C)[C@@]2(O)[C@@H](C=C(CO)C[C@]3(O)C(=O)C(C)=C[C@@H]23)[C@@H]2C(C)(C)[C@]12OC(C)=O [PMA, phorbol myristate acetate]
localization of ε-PKC on activation by PMA (ε-PKC [6]): nuclear and perinuclear localization
localization of δ-PKC on activation by PMA (δ-PKC [7]): mainly translocated to the perinucleus

CCCCC/C=C\C/C=C\C/C=C\C/C=C\CCCC(=O)N[C@H](C)CO [R(+) methanindamide]
Predominant Localization of ε-PKC (agent alone) (ε-PKC [1]): Cytoplasm
translocation of PKA-Cα after co-incubation with ethanol (PKA Cα [3]): Synergistic translocation
translocation of PKA-Cα after co-incubation with NPA (PKA Cα [3]): Synergistic translocation

Nc1ncnc2c1ncn2[C@@H]1O[C@@H]2CO[P@@](O)(=S)O[C@H]2[C@H]1O [Rp-cAMPS]
effect on NPA-induced PKA Cα translocation (PKA Cα [4]; [13]): prevent
effect of agent alone on PKA Cα localization (PKA Cα [4]; primary hippocampal neurons): no effect
effect of agent alone on luciferase activity / gene expression [8]: without effect
effect on NPA-induced translocation of δ-PKC (δ-PKC [9]): did not affect
effect on ethanol-induced translocation of δ-PKC (δ-PKC [9]): did not affect
Predominant ε-PKC Localization (ethanol + inhibitor) (ε-PKC [5]): Perinucleus
effect on the ethanol-induced increase in luciferase activity (GAL4-CREB / GAL4-luciferase) [10]: inhibited
effect on NPA-induced translocation of ε-PKC (ε-PKC [1]): blocked
effect on ethanol-induced translocation of ε-PKC (ε-PKC [1]): blocked
effect on early (4 h) and late (14 h) phases of ethanol-induced increases in luciferase expression ([2]; NG108-15 cells, 200 mM ethanol co-incubated with Rp-cAMPS 20 μM): completely inhibited both the early and late phases

Nc1ncnc2c1ncn2[C@@H]1O[C@@H]2COP(O)(=S)O[C@H]2[C@H]1O (some centres unmarked) [Sp-cAMPS]
translocation of δ PKC on activation of PKA (δ-PKC [9]; [17]): did not induce translocation
translocation of ε PKC on activation of PKA (ε-PKC [1]; [17]): translocate to the cytoplasm

N#CC(=C(/N)Sc1ccccc1N)/C(C#N)=C(\N)Sc1ccccc1N [U0126]
effect on the increase in luciferase expression after 14 hours of exposure to 200 mM ethanol [2]: eliminated the increase in luciferase activity

COc1ccc2c(c1)CC[C@@H]1[C@@H]2CC[C@]2(C)[C@@H](NCCCCCCN3C(=O)C=CC3=O)CC[C@@H]12 [U 73122]
Predominant ε-PKC Localization (ethanol + inhibitor) (ε-PKC [5]): Perinucleus
inhibition of ethanol-induced translocation of ε-PKC (ε-PKC [1]; [14]): 87%
inhibition of ethanol-induced translocation of ε-PKC (ε-PKC [1]; [15]): 84%

Brc1c(NC2=NCCN2)ccc2nccnc12 [UK14304]
Predominant Localization of ε-PKC (agent alone) (ε-PKC [1]; [12]): Perinucleus

C=C[C@@]1(C)CC(=O)[C@]2(O)[C@@]3(C)[C@@H](O)CCC(C)(C)[C@@H]3[C@H](O)[C@H](OC(C)=O)[C@@]2(C)O1 [forskolin]
effect on localization of the catalytic subunits of PKA (Cα, Cβ, Cγ) ([11]; neutrophils from non-alcoholics, 200 mM ethanol or 100 nM forskolin): no effect
effect on the localization of RIIα ([11]; neutrophils, ethanol or forskolin): no effect

O=C(CCCN1CCC2(CC1)C(=O)NCN2c1ccccc1)c1ccc(F)cc1 [spiperone]
effect on NPA-induced PKA Cα translocation (PKA Cα [4]; [13]): blocks
effect of agent alone on PKA Cα localization (PKA Cα [4]; primary hippocampal neurons): no effect
effect of agent alone on luciferase activity / gene expression [8]: without effect
effect on NPA-induced translocation of δ-PKC (δ-PKC [9]): blocked
effect on ethanol-induced translocation of δ-PKC (δ-PKC [9]): no effect
Predominant Localization of δ-PKC (antagonist + NPA) (δ-PKC [9]; 10 μM spiperone + 50 nM NPA): Golgi
Predominant Localization of δ-PKC (antagonist + ethanol) (δ-PKC [9]; [18]): Perinucleus &
effect on NPA-induced translocation of ε-PKC (ε-PKC [1]): blocked
effect on ethanol-induced translocation of ε-PKC (ε-PKC [1]): no effect
Predominant Localization of ε-PKC (antagonist + NPA) (ε-PKC [1]; 10 μM spiperone + 50 nM NPA): Perinucleus
Predominant Localization of ε-PKC (antagonist + ethanol) (ε-PKC [1]; [18]): Cytoplasm
effect on NPA-induced translocation of PKA Cα (PKA Cα [3]): blocked
effect on ethanol-induced translocation of PKA Cα (PKA Cα [3]): no effect
Predominant Localization of PKA Cα (antagonist + NPA) (PKA Cα [3]; 10 μM spiperone + 50 nM NPA): Golgi
Predominant Localization of PKA Cα (antagonist + ethanol) (PKA Cα [3]; 10 μM spiperone + 200 mM ethanol): Nucleus &
